Values joined by “and” are separate entries in the source; they are usually repeats but may differ in a detail not shown here. Equal values may be shown once. Inconclusive results and toxic doses are left out. Rule as the data show it: active = T/C of 150% or more; inactive = T/C below 125%.
Tested on: L1210 leukemia ip in BDF1 mice, survival T/C
Assay: NCI In Vivo Anticancer Drug Screen. Data for tumor model L1210 Leukemia (intraperitoneal) in B6D2F1 (BDF1) mice
Conditions: endpoint: mean survival time, higher = longer survival
In short: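 Antitumor effect is assessed in tumor-bearing animals. Survival in the compound arm is compared with a vehicle-dosed control arm and expressed as their quotient.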

[1] = dose: 25.0 mg/kg/injection, schedule: Q04DX003 (ip), vehicle: saline with Tween-80
[2] = dose: 50.0 mg/kg/injection, schedule: Q04DX003 (ip), vehicle: saline with Tween-80
[3] = dose: 100.0 mg/kg/injection, schedule: Q01DX009 (ip), vehicle: Klucel (hydroxypropylcellulose) (HPC)
[4] = dose: 100.0 mg/kg/injection, schedule: Q04DX003 (ip), vehicle: Klucel (hydroxypropylcellulose) (HPC)
[5] = dose: 200.0 mg/kg/injection, schedule: Q01DX009 (ip), vehicle: Klucel (hydroxypropylcellulose) (HPC)
[6] = dose: 200.0 mg/kg/injection, schedule: Q04DX003 (ip), vehicle: Klucel (hydroxypropylcellulose) (HPC)
[7] = dose: 400.0 mg/kg/injection, schedule: Q01DX009 (ip), vehicle: Klucel (hydroxypropylcellulose) (HPC)
[8] = dose: 400.0 mg/kg/injection, schedule: Q04DX003 (ip), vehicle: Klucel (hydroxypropylcellulose) (HPC)
[9] = dose: 12.5 mg/kg/injection, schedule: Q01DX009 (ip), vehicle: saline with Tween-80
[10] = dose: 25.0 mg/kg/injection, schedule: Q01DX009 (ip), vehicle: saline with Tween-80

Measured: T/C

CC(C)(C)C1=CC(C)([N+](=O)[O-])C=C(C(C)(C)C)C1=O
inactive: dose: 100.0 mg/kg/injection, schedule: Q01DX001 (ip), vehicle: carboxymethylcellulose (CMC) 88 % of control | dose: 200.0 mg/kg/injection, schedule: Q01DX001 (ip), vehicle: carboxymethylcellulose (CMC) 89 % of control | dose: 400.0 mg/kg/injection, schedule: Q01DX001 (ip), vehicle: carboxymethylcellulose (CMC) 88 % of control

CC(C)(C)CCSC(=N)N
inactive: [1] 98 % of control | [2] 102 % of control | dose: 100.0 mg/kg/injection, schedule: Q04DX003 (ip), vehicle: saline with Tween-80 96 % of control

Cc1cc(N(CCCl)CCCl)ccc1C=Nc1ccccc1-n1ccnc1C
inactive: dose: 75.0 mg/kg/injection, schedule: Q04DX002 (ip), vehicle: Klucel (hydroxypropylcellulose) (HPC) 98 % of control | dose: 150.0 mg/kg/injection, schedule: Q04DX002 (ip), vehicle: Klucel (hydroxypropylcellulose) (HPC) 98 % of control | dose: 300.0 mg/kg/injection, schedule: Q04DX002 (ip), vehicle: Klucel (hydroxypropylcellulose) (HPC) 98 % of control

Cc1ccc(NC(=O)c2ccc(Cl)cc2Cl)cc1Cl
inactive: [3] 96 % of control | [4] 104 % of control | [5] 91 % of control | [6] 97 % of control | [7] 94 % of control | [8] 95 % of control

CCOC(=O)NC(=S)n1ncnc1N
inactive: dose: 6.25 mg/kg/injection, schedule: Q01DX009 (ip), vehicle: saline with Tween-80 105 % of control | [9] 97 % of control | [10] 100 % of control | dose: 35.0 mg/kg/injection, schedule: Q01DX009 (ip), vehicle: saline with Tween-80 86 % of control

Cc1cc2nc3c(=O)[nH]c(=O)nc-3n(CC(O)C(O)C(O)C(O)CO)c2cc1C (centres undefined)
inactive: dose: 14.12 mg/kg/injection, schedule: Q01DX Z (ip), vehicle: carboxymethylcellulose (CMC) 91 % of control | dose: 25.0 mg/kg/injection, schedule: Q01DX015 (ip), vehicle: saline 100 % of control | dose: 28.25 mg/kg/injection, schedule: Q01DX Z (ip), vehicle: carboxymethylcellulose (CMC) 93 % of control | dose: 50.0 mg/kg/injection, schedule: Q01DX015 (ip), vehicle: saline 96 % of control | dose: 56.5 mg/kg/injection, schedule: Q01DX Z (ip), vehicle: carboxymethylcellulose (CMC) 90 % of control | dose: 100.0 mg/kg/injection, schedule: Q01DX015 (ip), vehicle: saline 96 % of control | dose: 100.0 mg/kg/injection, schedule: Q01DX Z (ip), vehicle: carboxymethylcellulose (CMC) 97 % of control | dose: 113.0 mg/kg/injection, schedule: Q01DX Z (ip), vehicle: carboxymethylcellulose (CMC) 89 % of control | dose: 200.0 mg/kg/injection, schedule: Q01DX015 (ip), vehicle: saline 97 % of control and 98 % of control | dose: 200.0 mg/kg/injection, schedule: Q01DX Z (ip), vehicle: carboxymethylcellulose (CMC) 97 % of control | dose: 400.0 mg/kg/injection, schedule: Q01DX001 (ip), vehicle: acetone 103 % of control | dose: 400.0 mg/kg/injection, schedule: Q01DX015 (ip), vehicle: saline 92 % of control | dose: 400.0 mg/kg/injection, schedule: Q01DX Z (ip), vehicle: carboxymethylcellulose (CMC) 94 % of control | dose: 800.0 mg/kg/injection, schedule: Q01DX001 (ip), vehicle: acetone 95 % of control | dose: 800.0 mg/kg/injection, schedule: Q01DX Z (ip), vehicle: carboxymethylcellulose (CMC) 90 % of control

CN1CCC(CSC(=O)C(O)(c2ccccc2)C2CCCCC2)C1 (centres undefined)
inactive: dose: 75.0 mg/kg/injection, schedule: Q01DX001 (ip), vehicle: saline 97 % of control

COP(=O)(OC)C(=O)c1ccc([N+](=O)[O-])cc1
inactive: dose: 100.0 mg/kg/injection, schedule: Q01DX001 (ip), vehicle: saline 98 % of control | dose: 200.0 mg/kg/injection, schedule: Q01DX001 (ip), vehicle: saline 95 % of control | dose: 400.0 mg/kg/injection, schedule: Q01DX001 (ip), vehicle: saline 103 % of control

O=C(C[n+]1ccccc1)N/N=C/c1ccccc1O
inactive: [9] 86 % of control | [10] 86 % of control | dose: 50.0 mg/kg/injection, schedule: Q01DX009 (ip), vehicle: saline with Tween-80 96 % of control

CCCCNC(=O)C1CC2c3cc(Br)cc4[nH]c(Br)c(c34)CC2N(C)C1 (centres undefined)
inactive: dose: 25.0 mg/kg/injection, schedule: Q04DX003 (ip), vehicle: Klucel (hydroxypropylcellulose) (HPC) 96 % of control | [4] 91 % of control | [8] 89 % of control

COS(=O)(=O)c1ccc(Cl)c([N+](=O)[O-])c1
inactive: dose: 0.38 mg/kg/injection, schedule: Q01DX009 (ip), vehicle: saline 97 % of control | dose: 0.75 mg/kg/injection, schedule: Q01DX009 (ip), vehicle: saline 102 % of control | dose: 0.75 mg/kg/injection, schedule: Q04DX003 (ip), vehicle: saline with Tween-80 101 % of control | dose: 1.5 mg/kg/injection, schedule: Q01DX009 (ip), vehicle: saline 97 % of control | dose: 1.5 mg/kg/injection, schedule: Q04DX003 (ip), vehicle: saline with Tween-80 90 % of control

CC(C)[PH+]1c2ccccc2-c2ccccc21.CC(C)[PH+]1c2ccccc2-c2ccccc21.[Cl][Pt][Cl]
inactive: dose: 12.5 mg/kg/injection, schedule: Q04DX003 (ip), vehicle: saline with Tween-80 98 % of control | [1] 98 % of control | [2] 98 % of control

O=C(O)c1ccc([N+](=O)[O-])cc1P(=O)(O)O
inactive: dose: 75.0 mg/kg/injection, schedule: Q04DX003 (ip), vehicle: saline with Tween-80 103 % of control

CC(=O)OC(C)C(=O)C(Cl)(Cl)Cl (centres undefined)
inactive: [3] 100 % of control | [4] 96 % of control | [5] 98 % of control | [6] 103 % of control | [7] 91 % of control | [8] 101 % of control

Nc1ncnc(N)c1NC(=O)c1ccc([N+](=O)[O-])cc1
inactive: dose: 25.0 mg/kg/injection, schedule: Q01DX001 (ip), vehicle: Klucel (hydroxypropylcellulose) (HPC) 93 % of control | dose: 50.0 mg/kg/injection, schedule: Q01DX001 (ip), vehicle: Klucel (hydroxypropylcellulose) (HPC) 89 % of control | dose: 100.0 mg/kg/injection, schedule: Q01DX001 (ip), vehicle: Klucel (hydroxypropylcellulose) (HPC) 102 % of control

O=C(Nc1ccccc1O)c1ccccc1Cl
inactive: [3] 96 % of control | [5] 98 % of control | [7] 91 % of control

O=C1NC(=O)C(c2ccc(Cl)cc2)(c2ccccc2Cl)N1 (centres undefined)
inactive: [4] 95 % of control | [6] 102 % of control | [8] 98 % of control

O=C(Nc1cc([N+](=O)[O-])ccc1O)c1ccc(Cl)c(Cl)c1
inactive: [3] 104 % of control | [5] 95 % of control | [7] 93 % of control

C=CCN(CC=C)P(N(CC=C)CC=C)N(CC=C)CC=C
inactive: dose: 75.0 mg/kg/injection, schedule: Q01DX009 (ip), vehicle: saline 98 % of control | dose: 150.0 mg/kg/injection, schedule: Q01DX009 (ip), vehicle: saline 96 % of control

C/C=C/C[P+](c1ccccc1)(c1ccccc1)c1ccccc1
inactive: dose: 3.13 mg/kg/injection, schedule: Q01DX009 (ip), vehicle: saline 98 % of control | dose: 6.25 mg/kg/injection, schedule: Q01DX009 (ip), vehicle: saline 110 % of control | [9] 106 % of control | dose: 12.5 mg/kg/injection, schedule: Q01DX009 (ip), vehicle: saline 98 % of control | dose: 15.0 mg/kg/injection, schedule: Q01DX001 (ip), vehicle: saline 101 % of control | dose: 30.0 mg/kg/injection, schedule: Q01DX001 (ip), vehicle: saline 114 % of control

From PubChem BioAssay AID248 (DTP/NCI, 2004)
